Among the data in PubChem BioAssay (NCI) are GI50 and TGI values, retold here.

Test systems include RPMI-8226 leukemia; CCRF-CEM leukemia; SR leukemia; BT-549 breast; LOX IMVI melanoma; SF-539 CNS; SF-295 CNS; T-47D breast; HT29 colon; OVCAR-5 ovarian.
Common to all, as to assay: NCI-60 cell line screen, 48 h

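Dose response: 5 concentrations. Exposure: 48 h. Format: 96-well plates. Endpoint: linear interpolation; highest concentration if not reached. The concentration for 50% growth inhibition is given as GI50. At the TGI there is no net growth.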

On to `COc1cc(C2c3cc4c(cc3C(OC(=O)C[n+]3ccccc3)C3COC(=O)C23)OCO4)cc(OC)c1OC` (configuration not stated), for which the GI50 in the experiment on RPMI-8226 leukemia is below 0.0203 µM; in the experiment with CCRF-CEM leukemia, below 0.0205 µM; in the experiment with SR leukemia, below 0.016 µM; in the experiment on BT-549 breast it was below 0.01 µM; in the experiment with LOX IMVI melanoma, below 0.0179 µM; in the experiment with SF-539 CNS, below 0.0154 µM. Also, the GI50 in the experiment on SF-295 CNS was below 0.0164 µM; in the experiment with T-47D breast, 41.2 µM; in the experiment on HT29 colon, below 0.01 µM. Besides, the TGI is above 100 µM with RPMI-8226 leukemia; above 100 µM in the experiment with CCRF-CEM leukemia; above 100 µM in the experiment on SR leukemia; above 100 µM in the experiment on BT-549 breast; above 100 µM with LOX IMVI melanoma; below 0.0278 µM in the experiment with SF-539 CNS. Besides, the TGI in the experiment on SF-295 CNS, in the experiment on T-47D breast, with HT29 colon and in the experiment with OVCAR-5 ovarian was above 100 µM throughout.

On to `CN1CCN(Cc2ccc(NC(=O)c3cncc(C#Cc4cnc(N)c5cccnc45)c3)cc2C(F)(F)F)CC1`, for which the GI50 is 0.603 µM with RPMI-8226 leukemia; 0.234 µM with CCRF-CEM leukemia; 0.293 µM in the experiment with SR leukemia; 1.48 µM with BT-549 breast; 0.159 µM in the experiment with LOX IMVI melanoma; 0.288 µM with SF-539 CNS. For the same compound, the GI50 with SF-295 CNS was 2.07 µM; in the experiment with T-47D breast, 0.36 µM; in the experiment on HT29 colon, 0.157 µM; in the experiment on OVCAR-5 ovarian, 0.537 µM. The TGI was above 50 µM in the experiment with RPMI-8226 leukemia; above 50 µM with CCRF-CEM leukemia; above 50 µM in the experiment on SR leukemia; above 50 µM with BT-549 breast; 0.686 µM in the experiment on LOX IMVI melanoma; 1.78 µM in the experiment on SF-539 CNS. For the same compound, the TGI in the experiment with SF-295 CNS, in the experiment on T-47D breast, in the experiment with HT29 colon and in the experiment on OVCAR-5 ovarian was above 50 µM each time.

As to `O=C1C=CC(=O)c2c(O)c3c(c(O)c21)C[C@H](O)[C@H](O)[C@@H]3O`, the TGI in the experiment with RPMI-8226 leukemia was 4.85 µM; in the experiment on SR leukemia, above 100 µM; in the experiment with BT-549 breast it was 2.81 µM; in the experiment with LOX IMVI melanoma it was 4.08 µM; in the experiment with SF-539 CNS, 9.16 µM; in the experiment on SF-295 CNS it was 20.3 µM. In addition, the values for the TGI with T-47D breast, in the experiment with HT29 colon and in the experiment on OVCAR-5 ovarian were 4 µM, 5.83 µM and 17.2 µM, respectively.

Turning to `Cc1cn(Cc2ccc(C34CC5CC(CC(C5)C3)C4)c(O)c2)c(=O)[nH]c1=O`, the GI50 in the experiment on RPMI-8226 leukemia is 1.79 µM; with SR leukemia it was 3.16 µM; in the experiment on BT-549 breast, 8.7 µM; with LOX IMVI melanoma it was 11.3 µM; in the experiment with SF-539 CNS, 9.45 µM; in the experiment with SF-295 CNS it was 4.56 µM. The results for the GI50 with T-47D breast, in the experiment on HT29 colon and in the experiment on OVCAR-5 ovarian were 6.45 µM, 11.1 µM and 16.1 µM, respectively. The TGI came to 21 µM in the experiment with RPMI-8226 leukemia; 13.5 µM in the experiment with SR leukemia; 20.8 µM with BT-549 breast; 23.3 µM in the experiment on LOX IMVI melanoma; 23 µM with SF-539 CNS; 18.5 µM with SF-295 CNS. Besides, the TGI in the experiment with T-47D breast is 51.8 µM; with HT29 colon, 26.5 µM; in the experiment on OVCAR-5 ovarian, 29.8 µM.

In the case of `Cc1cc2c(-c3nc4ccccn4c3N)c(O)c(O)cc2c(O)c1-c1c(C)cc2c(-c3nc4ccccn4c3N)c(O)c(O)cc2c1O`, the GI50 with RPMI-8226 leukemia is 0.661 µM; with CCRF-CEM leukemia it was 0.497 µM; in the experiment on SR leukemia, 1.96 µM; with BT-549 breast it was 0.145 µM; in the experiment on LOX IMVI melanoma, 0.582 µM; with SF-539 CNS, 0.707 µM. Also, the values for the GI50 with T-47D breast, with HT29 colon and in the experiment on OVCAR-5 ovarian were 0.502 µM, 0.979 µM and 1.69 µM, respectively. In addition, the TGI is above 25 µM in the experiment with RPMI-8226 leukemia; above 25 µM in the experiment on CCRF-CEM leukemia; above 25 µM with SR leukemia; above 25 µM in the experiment on BT-549 breast; above 25 µM in the experiment on LOX IMVI melanoma; 20.9 µM in the experiment with SF-539 CNS. Moreover, the TGI in the experiment on T-47D breast, with HT29 colon and with OVCAR-5 ovarian was above 25 µM each time.

In the case of `O=C(NCC1CCCO1)c1ccc(NC2=C(Cl)C(=O)N(Cc3ccccc3)C2=O)cc1` (configuration not stated), the GI50 in the experiment with RPMI-8226 leukemia is 3.36 µM; in the experiment on SR leukemia, 12.4 µM; in the experiment on BT-549 breast it was 16.7 µM; in the experiment with LOX IMVI melanoma, 24.5 µM; with SF-539 CNS, 15.4 µM; with SF-295 CNS, 12.1 µM. Moreover, the GI50 with T-47D breast was 30.5 µM; in the experiment with HT29 colon it was 22.2 µM; in the experiment with OVCAR-5 ovarian, 16.6 µM. Besides, the TGI in the experiment on RPMI-8226 leukemia was 12.7 µM; in the experiment with SR leukemia, 30.9 µM; in the experiment with BT-549 breast it was 33.9 µM; with LOX IMVI melanoma, above 100 µM; with SF-539 CNS, 31.2 µM; in the experiment with SF-295 CNS, 25 µM. Further, the TGI in the experiment with T-47D breast is above 100 µM; with HT29 colon it was 88 µM; with OVCAR-5 ovarian, 32.8 µM.
